The source of these data is patent publication US6727244B2, “Mammalian metabolites of a tachykinin receptor antagonist” (Merck & Co., Inc., priority 2000, dated 2004).

A short description of data set [1]: oxidative metabolism in liver microsomes from humans. Type of data set: in vitro ADME. Particulars: human liver microsomes, 15 min incubation. The method, then: All liver microsomal and cytosolic fractions were prepared using the following procedure. Thawed livers were homogenized with 2 volumes of 50 mM Tris-buffer (pH 7.5) containing 1.15% KCl. For microsomal and cytosolic preparations, the homogenate was centrifuged for 20 min at 9,000×g and the resulting supernatant was centrifuged for 60 min at 105,000×g. The resulting cytosolic fractions were re-centrifuged at 105,000×g for 60 min. Fractions of cytosol were aliquoted into small tubes and stored at −70° C. Subsequently, the microsomal pellets were washed with 10 mM EDTA containing 1.15% KCl and were centrifuged at 105,000×g for 60 min. Washed microsomes were resuspended in 10 mM potassium phosphate buffer (pH 7.4) containing 250 mM sucrose, aliquoted into small tubes, and stored at −70° C. Protein concentrations were determined by a modified Lowry assay (Smith et al., 1985). The specific cytochrome P450 content in each microsomal preparation was measured as described by Omura and Sato, J. Biol. Chem. 239, 2370-2378 (1964). […]
Method A was conducted on a Shimadzu HPLC system (Shimadzu Scientific Instruments Inc., Columbia Md.). The parent compounds and their metabolites were monitored directly using a radiometric detector (INUS Systems Inc. Tampa, Fla.) and Ultima-Flow M (Packard Instrument Co., Meridan Conn.) as scintillant at a flow rate of 3 mL/min. […]
For orientation: Microsomes from liver hold many membrane-bound enzymes, among them those of drug oxidation.

A further data set has as its target T1, human NK1 receptor (Homo sapiens, UniProt P25103).
T1 construct: expressed in transfected cells
As to the kind of experiment: human NK1 receptor binding assay (125I-substance P, COS or CHO cells). The method, then:
To express the cloned human neurokinin-1 receptor (NKIR) transiently in COS, the cDNA for the human NKIR was cloned into the expression vector pCDM9 which was derived from pCDM8 (INVITROGEN) by inserting the ampicillin resistance gene (nucleotide 1973 to 2964 from BLUESCRIPT SK+) into the Sac II site. Transfection of 20 ug of the plasmid DNA into 10 million COS cells was achieved by electroporation in 800 ul of transfection buffer (135 mM NaCl, 1.2 mM CaCl2, 1.2 mM MgCl2, 2.4 mM K2HPO4, 0.6 mM KH2PO4, 10 mM glucose, 10 mM HEPES pH 7.4) at 260 V and 950 uF using the IBI GENEZAPPER (IBI, New Haven, Conn.). The cells were incubated in 10% fetal calf serum, 2 mM glutamine, 100U/ml penicillin-streptomycin, and 90% DMEM media (GIBCO, Grand Island, N.Y.) in 5% CO2 at 37° C. for three days before the binding assay.
To establish a stable cell line expressing the cloned human NK1R, the cDNA was subcloned into the vector pRcCMV (INVITROGEN). Transfection of 20 ug of the plasmid DNA into CHO cells was achieved by electroporation in 800 ul of transfection buffer suplemented with 0.625 mg/ml Herring sperm DNA at 300 V and 950 uF using the IBI GENEZAPPER (IBI). The transfected cells were incubated in CHO media [10 % fetal calf serum, 100 U/ml pennicilin-streptomycin, 2 mM glutamine, 1/500 hypoxanthine-thymidine (ATCC), 90% IMDM media (JRH BIOSClENCES, Lenexa, Kans.), 0.7 mg/ml G418 (GIBCO)] in 5% CO2 at 37° C. until colonies were visible. Each colony was separated and propagated. The cell clone with the highest number of human NK1R was selected for subsequent applications such as drug screening.
The binding assay of human NK1R expressed in either COS or CHO cells is based on the use of ^125I-substance P (^125I-SP, from DU PONT, Boston, Mass.) as a radioactively labeled ligand which competes with unlabeled substance P or any other ligand for binding to the human NK1R. Monolayer cell cultures of COS or CHO were dissociated by the non-enzymatic solution (SPECIALTY MEDIA, Lavallette, N.J.) and resuspended in appropriate volume of the binding buffer (50 mM Tris pH 7.5, 5 mM MnCl2, 150 mM NaCl, 0.04 mg/ml bacitracin, 0.004 mg/ml leupeptin, 0.2 mg/ml BSA, 0.01 mM phosphoramidon) such that 200 ul of the cell suspension would give rise to about 10,000 cpm of specific ^125I-SP binding (approximately 50,000 to 200,000 cells). […] The bound radioactivity was separated from unbound radioactivity by GF/C filter (BRANDEL, Gaithersburg, Md.) which was pre-wetted with 0.1 % polyethylenimine. The filter was washed with 3 ml of wash buffer (50 mM Tris pH 7.5, 5 mM MnCl2, 150 mM NaCl) three times and its radioactivity was determined by gamma counter.

T1 sequence (P25103 whole entry): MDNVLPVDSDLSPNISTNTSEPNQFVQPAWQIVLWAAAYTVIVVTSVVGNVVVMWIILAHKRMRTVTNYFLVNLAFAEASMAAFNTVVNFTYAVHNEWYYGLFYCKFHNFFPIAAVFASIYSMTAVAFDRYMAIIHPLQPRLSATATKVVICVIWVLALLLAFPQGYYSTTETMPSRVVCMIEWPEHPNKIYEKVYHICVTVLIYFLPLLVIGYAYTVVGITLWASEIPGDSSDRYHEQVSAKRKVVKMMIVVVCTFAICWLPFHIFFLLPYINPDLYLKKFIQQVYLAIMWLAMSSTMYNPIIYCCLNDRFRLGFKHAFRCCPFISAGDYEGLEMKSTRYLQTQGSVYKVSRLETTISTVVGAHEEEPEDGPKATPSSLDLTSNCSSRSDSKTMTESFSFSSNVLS

A word on the IC50: it is the midpoint of a concentration-inhibition curve. Read a low IC50 as inhibition by little substance. Consider `C[C@@H](O[C@H]1OCCN[C@H]1c1ccc(F)cc1)c1cc(C(F)(F)F)cc(C(F)(F)F)c1` [Metabolite M-1, (2R,3S)-2-[(1R)-1-[3,5-bis(trifluoromethyl)phenyl]ethoxy]-3-(4-fluorophenyl)morpholine], for which the “parent compound remained after incubation” value in data set [1] is about 50%. Further, the IC50 on human NK1 receptor amounted to 1 nM.
